Residues, ends and D or L forms follow the SMILES beside them.
Legend:
[1] = system: depression/despair-associated behavior; test: Tail suspension test (TST); assay type: in vivo, C57BL6 mice; conditions: for Tail Suspension Test: Active: C57BL6 mice, 1 h after injection, 5 min test
Procedure: The light-dark box test and the elevated plus maze were used as measures of anxiety-associated behaviors. The tail suspension test was performed to evaluate despair- and depression-associated behavior.
Depression/Despair-behavior testing. Since rodents such as mice and rats display immobile postures when placed in inescapable stressful situations, immobility behavior in the tail suspension test (TST) or forced swim test (FST) is used as a measure of “depression” or “despair”-associated behavior. Furthermore, administering antidepressant treatments prior to testing reduces immobility behavior. Therefore TST and FST are often used to screen novel drugs for depressant or anti-depressant properties.
Tail suspension test as a measure of depression-associated behavior. Immediately following the EPM test, the TST was conducted according to standard procedure between 8:00 AM and 2:00 PM. Cryan, J. F., Mombereau, C., & Vassout, A. The tail suspension test as a model for assessing antidepressant activity: review of pharmacological and genetic studies in mice. Neurosci. Biobehay. Rev. 29, 571-625 (2005). Briefly, each mouse was suspended by the tail at a height of 40 cm by taping the rail to a horizontal bar so that the tail is vertical to the bar. Behavior was video recorded for 5 min and later analyzed by an experimenter, whom was blind to the treatments. […] If a mouse climbed its tail the mouse was gently pulled back down and the trial continued. Mice that climbed their tails for more than 20% of the trial (i.e. >60 seconds) were eliminated from the final analysis. Duration and frequency of immobility was the main parameters measured. Mice injected with the scrambled control peptide were immobile approximately 26% of the TST duration which is equivalent to baseline immobility durations (approximately 27%) observed in C57B16 mice in another recent study.

[2] = system: CRMP-2 binding to L1 and Ct-dis regions of CaV2.2; test: In vitro binding of L1-GST and Ct-dis-GST fusion proteins to CRMP-2; design: species or system rat; conditions: peptides 10 μM
Description: In Vitro Protein Binding Assays. Using Vector NTI (v. 11; Invitrogen) software, primers were designed to amplify regions corresponding to the first cytoslic loop (L1; amino acids 356 to 483) and the distal end of the C-terminus (Ct-dis; amino acids 2133 to 2348) of rat CaV2.2 cDNA from P3 rat brain cDNA. The primers harbored restriction sites (Bam HI or Bgl II (5′) and Eco RI or Mfe I (3′)) to facilitate cloning into […]. In addition to the GST-tag, this vector contains the Glu tag, a sequence of six amino acids (EYMPME). Correctly-amplified PCR products and parent pGex-3x-Glu vector were digested with the indicated restriction enzymes, and then extracted following electrophoresis on an agarose gel. The extracted DNAs were quantified (Nanodrop 1000, Thermo Scientific), and ligations were performed using 6:1 and 3:1 insert to vector molar ratios. […]
Monoclonal Glu antibody-saturated Protein G beads (GE Healthcare) carrying various CaV2.2 cytoplasmic loop constructs were incubated with rat brain synaptosome protein in the presence of TAT control or TAT CBD3 peptides (10 μM) in a total reaction volume of 400 μl. […] The samples were then washed three times with a 1000-fold excess of binding buffer, and the proteins were eluted in 40 μl of SDS gel buffer and boiled for 5 min, after which 20 μl of each assay was run on SDS-PAGE and analyzed by immunoblotting with CRMP-2.

Compound	Tail Suspension Test: Active ([1]; 0.1 mg/kg i.p.) [s]	Tail Suspension Test: Active ([1]; 1 mg/kg i.p.) [s]	Tail Suspension Test: Active ([1]; 10 mg/kg i.p.) [s]	TST time spent immobile and frequency of immobile episodes ([1]; any dose, compared to TAT-Scramble)	interaction between CRMP-2 and L1 or Ct-dis regions of CaV2.2 [2]
CC(C)C[C@H](NC(=O)CNC(=O)[C@H](CCCNC(=N)N)NC(=O)[C@@H]1CCCN1C(=O)[C@@H](NC(=O)CNC(=O)[C@H](CCCNC(=N)N)NC(=O)[C@H](CC(C)C)NC(=O)[C@H](CCC(=O)O)NC(=O)[C@H](C)NC(=O)[C@H](CC(C)C)NC(=O)[C@H](CCCNC(=N)N)NC(=O)[C@H](CO)NC(=O)[C@H](CCCNC(=N)N)NC(=O)[C@H](C)NC(=O)[C@H](CCCNC(=N)N)NC(=O)[C@H](CCCNC(=N)N)NC(=O)[C@H](CCCNC(=N)N)NC(=O)[C@H](CCC(N)=O)NC(=O)[C@H](CCCNC(=N)N)NC(=O)[C@H](CCCNC(=N)N)NC(=O)[C@H](CCCCN)NC(=O)[C@H](CCCCN)NC(=O)[C@H](CCCNC(=N)N)NC(=O)CNC(=O)[C@@H](N)Cc1ccc(O)cc1)C(C)C)C(=O)O [TAT-CBD3] (H-YGRKKRRQRRRARSRLAELRGVPRGL-OH; N-terminus and C-terminus assumed)	238.1 ± 13.6	235.2 ± 13.0	239.7 ± 10.9	neither time spent immobile, nor frequencies of immobile episodes were altered	–
ARSRLAELRGVPRGL (CBD3)	–	–	–	–	disrupted the interaction
